Read-outs that look alike come from different tables or passages of the source.
What was measured:
Type in all cases: binding
[1] = biological target: T1, PI3K delta (PI3 Kd) (Homo sapiens, UniProt O00329); test: kinobeads assay, PI3K delta
T1 construct: endogenous in cells; host or cells: Jurkat, clone E6-1 (ATCC TIB-152) cell lysate
In short: (§1)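 IC50 values came from dose-response curves after test compound (1:3 series) competed with an immobilized phenylmorpholin-chromen affinity matrix for kinases in Jurkat lysate at 5 mg/mL protein. Eluted captured DNA-PK and PI3Kδ were measured by specific-antibody dot blot and infrared imaging. Buffer was Tris pH 7.4, NP40, MgCl2, NaCl, vanadate, DTT, NaF.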

[2] = biological target: T2, DNA-dependent protein kinase (DNA-PK) (Homo sapiens, UniProt P78527); test: kinobeads assay, DNA-PK
T2 construct: endogenous in cells; host or cells: Jurkat, clone E6-1 (ATCC TIB-152) cell lysate
T2 sequence (P78527 whole entry): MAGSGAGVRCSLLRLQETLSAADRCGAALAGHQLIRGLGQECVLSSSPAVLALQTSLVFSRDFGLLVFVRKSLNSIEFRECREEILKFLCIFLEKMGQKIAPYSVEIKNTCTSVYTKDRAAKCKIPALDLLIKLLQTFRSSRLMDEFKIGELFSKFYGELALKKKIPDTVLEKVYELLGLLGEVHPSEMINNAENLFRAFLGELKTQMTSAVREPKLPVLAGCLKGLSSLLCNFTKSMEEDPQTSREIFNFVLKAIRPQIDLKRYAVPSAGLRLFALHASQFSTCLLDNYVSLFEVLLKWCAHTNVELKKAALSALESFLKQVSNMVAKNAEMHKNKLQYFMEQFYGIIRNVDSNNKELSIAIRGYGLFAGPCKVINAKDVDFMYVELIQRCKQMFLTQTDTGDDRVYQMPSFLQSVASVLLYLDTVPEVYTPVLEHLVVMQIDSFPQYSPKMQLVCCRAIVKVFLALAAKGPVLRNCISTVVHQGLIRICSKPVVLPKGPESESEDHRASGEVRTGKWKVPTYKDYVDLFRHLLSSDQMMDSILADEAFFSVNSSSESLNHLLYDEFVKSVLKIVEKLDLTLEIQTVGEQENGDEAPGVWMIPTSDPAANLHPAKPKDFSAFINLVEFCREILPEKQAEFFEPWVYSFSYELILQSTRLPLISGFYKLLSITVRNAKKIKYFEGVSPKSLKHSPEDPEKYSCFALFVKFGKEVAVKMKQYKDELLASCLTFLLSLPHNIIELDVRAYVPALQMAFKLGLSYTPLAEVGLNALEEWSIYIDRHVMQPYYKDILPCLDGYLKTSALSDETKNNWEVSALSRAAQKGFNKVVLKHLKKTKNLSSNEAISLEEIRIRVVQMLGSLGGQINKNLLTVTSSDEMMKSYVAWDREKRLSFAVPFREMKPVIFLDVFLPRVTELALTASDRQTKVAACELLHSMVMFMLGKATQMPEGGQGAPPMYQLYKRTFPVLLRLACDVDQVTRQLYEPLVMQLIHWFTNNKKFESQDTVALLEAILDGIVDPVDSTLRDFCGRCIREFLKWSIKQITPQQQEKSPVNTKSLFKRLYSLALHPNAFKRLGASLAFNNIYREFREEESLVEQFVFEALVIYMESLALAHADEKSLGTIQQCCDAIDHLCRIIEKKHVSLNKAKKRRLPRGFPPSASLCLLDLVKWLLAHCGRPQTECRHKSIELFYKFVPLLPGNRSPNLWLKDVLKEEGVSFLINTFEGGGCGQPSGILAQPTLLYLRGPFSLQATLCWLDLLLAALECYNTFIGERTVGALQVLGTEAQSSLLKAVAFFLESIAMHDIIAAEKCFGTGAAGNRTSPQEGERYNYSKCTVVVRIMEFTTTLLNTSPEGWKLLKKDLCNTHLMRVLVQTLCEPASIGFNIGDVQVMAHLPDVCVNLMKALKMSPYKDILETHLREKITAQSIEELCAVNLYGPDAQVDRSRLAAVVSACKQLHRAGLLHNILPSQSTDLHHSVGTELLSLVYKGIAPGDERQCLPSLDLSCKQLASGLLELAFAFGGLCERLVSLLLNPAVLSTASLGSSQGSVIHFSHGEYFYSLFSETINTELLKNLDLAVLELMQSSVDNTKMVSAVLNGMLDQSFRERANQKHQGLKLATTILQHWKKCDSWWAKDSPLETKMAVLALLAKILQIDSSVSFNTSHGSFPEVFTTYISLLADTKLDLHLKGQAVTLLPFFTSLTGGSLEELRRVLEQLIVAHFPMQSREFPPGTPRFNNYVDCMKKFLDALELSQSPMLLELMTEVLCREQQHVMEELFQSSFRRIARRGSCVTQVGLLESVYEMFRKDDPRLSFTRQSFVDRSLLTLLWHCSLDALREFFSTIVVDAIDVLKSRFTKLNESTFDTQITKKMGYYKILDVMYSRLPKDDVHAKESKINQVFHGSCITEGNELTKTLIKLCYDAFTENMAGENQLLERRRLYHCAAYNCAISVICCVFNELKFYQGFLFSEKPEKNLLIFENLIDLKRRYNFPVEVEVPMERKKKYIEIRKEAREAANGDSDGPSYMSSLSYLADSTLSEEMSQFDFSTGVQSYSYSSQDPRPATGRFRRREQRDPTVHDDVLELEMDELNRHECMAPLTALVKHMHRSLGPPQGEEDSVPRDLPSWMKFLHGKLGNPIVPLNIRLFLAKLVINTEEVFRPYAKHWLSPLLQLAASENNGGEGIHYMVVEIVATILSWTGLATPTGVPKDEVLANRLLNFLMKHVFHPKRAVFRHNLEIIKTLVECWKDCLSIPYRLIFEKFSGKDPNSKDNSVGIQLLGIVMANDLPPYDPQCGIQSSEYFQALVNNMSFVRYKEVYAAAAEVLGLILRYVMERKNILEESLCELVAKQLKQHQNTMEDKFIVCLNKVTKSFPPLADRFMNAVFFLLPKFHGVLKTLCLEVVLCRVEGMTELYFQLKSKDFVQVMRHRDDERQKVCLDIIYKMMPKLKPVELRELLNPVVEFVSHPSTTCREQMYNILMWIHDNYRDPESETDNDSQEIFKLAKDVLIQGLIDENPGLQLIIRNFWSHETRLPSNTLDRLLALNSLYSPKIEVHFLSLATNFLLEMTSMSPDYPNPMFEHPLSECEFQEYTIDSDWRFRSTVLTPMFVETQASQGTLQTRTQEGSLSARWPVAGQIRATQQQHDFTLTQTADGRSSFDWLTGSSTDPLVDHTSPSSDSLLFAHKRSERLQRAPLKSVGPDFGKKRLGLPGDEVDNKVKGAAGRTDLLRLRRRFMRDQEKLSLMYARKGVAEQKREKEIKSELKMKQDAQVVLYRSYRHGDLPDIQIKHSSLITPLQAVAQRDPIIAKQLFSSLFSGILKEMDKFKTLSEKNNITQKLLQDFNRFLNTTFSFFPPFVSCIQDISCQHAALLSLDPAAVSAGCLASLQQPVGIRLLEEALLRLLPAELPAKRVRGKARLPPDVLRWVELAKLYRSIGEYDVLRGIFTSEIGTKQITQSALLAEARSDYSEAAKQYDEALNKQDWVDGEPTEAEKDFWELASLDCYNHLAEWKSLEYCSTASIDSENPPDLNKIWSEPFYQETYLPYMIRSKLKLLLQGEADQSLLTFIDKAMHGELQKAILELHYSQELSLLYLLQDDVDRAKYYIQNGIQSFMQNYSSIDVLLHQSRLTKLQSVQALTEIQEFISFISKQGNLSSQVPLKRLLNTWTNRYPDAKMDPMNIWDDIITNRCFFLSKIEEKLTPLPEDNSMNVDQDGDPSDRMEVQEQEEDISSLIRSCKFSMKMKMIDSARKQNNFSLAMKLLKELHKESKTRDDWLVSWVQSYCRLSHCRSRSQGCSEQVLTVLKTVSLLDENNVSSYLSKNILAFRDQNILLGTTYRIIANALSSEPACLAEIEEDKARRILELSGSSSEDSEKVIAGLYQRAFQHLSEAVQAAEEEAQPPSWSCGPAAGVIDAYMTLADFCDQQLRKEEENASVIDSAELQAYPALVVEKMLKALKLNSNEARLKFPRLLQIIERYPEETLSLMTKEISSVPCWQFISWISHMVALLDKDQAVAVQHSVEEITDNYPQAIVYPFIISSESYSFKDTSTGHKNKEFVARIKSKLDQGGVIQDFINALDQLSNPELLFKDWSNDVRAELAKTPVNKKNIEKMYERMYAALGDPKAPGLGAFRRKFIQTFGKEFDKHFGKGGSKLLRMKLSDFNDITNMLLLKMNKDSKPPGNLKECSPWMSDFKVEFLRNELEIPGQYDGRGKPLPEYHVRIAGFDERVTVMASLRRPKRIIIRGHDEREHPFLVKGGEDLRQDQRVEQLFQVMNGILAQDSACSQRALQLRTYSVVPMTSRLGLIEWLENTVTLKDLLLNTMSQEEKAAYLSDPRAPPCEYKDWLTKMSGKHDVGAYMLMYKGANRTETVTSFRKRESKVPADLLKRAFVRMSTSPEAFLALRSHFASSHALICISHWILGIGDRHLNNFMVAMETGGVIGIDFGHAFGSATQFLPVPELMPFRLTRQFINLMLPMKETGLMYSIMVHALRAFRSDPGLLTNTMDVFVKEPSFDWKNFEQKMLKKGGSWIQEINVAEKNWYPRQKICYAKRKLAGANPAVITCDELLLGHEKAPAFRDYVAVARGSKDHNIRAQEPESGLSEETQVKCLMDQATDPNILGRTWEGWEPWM
In short: as §1

[3] = biological target: T3, PI3Kalpha (PI3Ka) (Homo sapiens, UniProt P42336); test: kinobeads assay, PI3Kalpha
T3 construct: endogenous in cells; host or cells: cell lysate
In short: (§2)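 IC50 values derive from per-kinase dose-response curves in a lysate-based competition binding format. Kinases retained on phenylmorpholin-chromen beads in the presence of compound were eluted and detected by multiplexed immunodetection.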

[4] = biological target: T4, PI3 Kbeta (PI3 Kb) (Homo sapiens, UniProt P42338); test: kinobeads assay, PI3Kbeta
T4 construct: endogenous in cells; host or cells: cell lysate
In short: as §2

[5] = kinobeads assay, Table 4, read-out: Inhibition values (IC50) PI3Kd
[6] = kinobeads assay, Table 6, read-out: Inhibition values (IC50) PI3Kd
[7] = kinobeads assay, Table 4, read-out: Inhibition values (IC50) DNA-PK
[8] = kinobeads assay, Table 6, read-out: Inhibition values (IC50) DNAPK
[9] = kinobeads assay, Table 6, read-out: Inhibition values (IC50) PI3Ka
[10] = kinobeads assay, Table 6, read-out: Inhibition values (IC50) PI3Kb
[11] = Further Kinobeads Data, read-out: PI3Kd
[12] = Further Kinobeads Data, read-out: DNAPK
[13] = Further Kinobeads Data, read-out: PI3Kb
[14] = Further Kinobeads Data, read-out: PI3Ka

SMILES	IC50 [1, 5] [µM]	IC50 [1, 6] [µM]	IC50 [2, 7] [µM]	IC50 [2, 8] [µM]	IC50 [3, 9] [µM]	IC50 [4, 10] [µM]	IC50 [1, 11] [µM]	IC50 [2, 12] [µM]	PI3Ka ([3]; Further Kinobeads Data)	IC50 [4, 13] [µM]	Inhibition values (IC50) PI3Ka ([3]; kinobeads assay, Table 6)	IC50 [3, 14] [µM]
CC(C)N1CCc2c(nc(-c3ccc(NC(=O)NC4CC4)cc3)nc2N2CCOC[C@@H]2C)C1 [Example 43, (S)-1-cyclopropyl-3-(4-(7-isopropyl-4-(3-methylmorpholino)-5,6,7,8-tetrahydropyrido[3,4-d]pyrimidin-2-yl)phenyl)urea]	> 10	> 10	> 10	> 10	1 to 10	1 to 10	–	–	–	–	–	–
C[C@H]1COCCN1c1nc(-c2ccc(NC(=O)NC3CC3)cc2F)nc2c1CN(C(=O)N(C)C)C2 [Example 178, (S)-2-(4-(3-cyclopropylureido)-2-fluorophenyl)-N,N-dimethyl-4-(3-methylmorpholino)-5H-pyrrolo[3,4-d]pyrimidine-6(7H)-carboxamide]	–	–	–	–	–	–	> 10	> 10	D (D >10 μM)	> 10	–	–
CCNC(=O)Nc1ccc(-c2nc3c(c(N4CCOC[C@@H]4C)n2)CCN(C)C3)cc1 [Example 35, (S)-1-ethyl-3-(4-(7-methyl-4-(3-methylmorpholino)-5,6,7,8-tetrahydropyrido[3,4-d]pyrimidin-2-yl)phenyl)urea]	> 10	> 10	> 10	> 10	–	> 10	–	–	–	–	D (D >10 μM)	–
CCNC(=O)Nc1ccc(-c2nc3c(c(N4CCOC[C@@H]4C)n2)CN(C(=O)C(C)C)C3)cc1 [Example 21, (S)-1-ethyl-3-(4-(6-isobutyryl-4-(3-methylmorpholino)-6,7-dihydro-5H-pyrrolo[3,4-d]pyrimidin-2-yl)phenyl)urea]	1 to 10	1 to 10	> 10	> 10	1 to 10	> 10	–	–	–	–	–	–
CC(C)N1Cc2nc(-c3ccc(NC(=O)NCCO)cc3F)nc(N3CCOC[C@@H]3C)c2C1 [Example 187, (S)-1-(3-fluoro-4-(6-isopropyl-4-(3-methylmorpholino)-6,7-dihydro-5H-pyrrolo[3,4-d]pyrimidin-2-yl)phenyl)-3-(2-hydroxyethyl)urea]	–	–	–	–	–	–	> 10	> 10	D (D >10 μM)	> 10	–	–
CCNC(=O)Nc1ccc(-c2nc3c(c(N4CCOC[C@@H]4C)n2)CN(C(=O)OC)C3)c(F)c1 [Example 152, (S)-methyl 2-(4-(3-ethylureido)-2-fluorophenyl)-4-(3-methylmorpholino)-5H-pyrrolo[3,4-d]pyrimidine-6-(7H)-carboxylate]	–	–	–	–	–	–	1 to 10	> 10	D (D >10 μM)	> 10	–	–
C[C@H]1COCCN1c1nc(-c2ccc(NC(=O)NC3CC3)cc2F)nc2c1CCNC2 [Example 163, (S)-1-cyclopropyl-3-(3-fluoro-4-(4-(3-methylmorpholino)-5,6,7,8-tetrahydropyrido[3,4-d]pyrimidin-2-yl)phenyl)urea]	–	–	–	–	–	–	> 10	> 10	D (D >10 μM)	> 10	–	–
COC(=O)N1Cc2nc(-c3ccc(NC(=O)NCCO)cc3F)nc(N3CCOC[C@@H]3C)c2C1 [Example 181, (S)-methyl 2-(2-fluoro-4-(3-(2-hydroxyethyl)ureido)phenyl)-4-(3-methylmorpholino)-5H-pyrrolo[3,4-d]pyrimidine-6(7H)-carboxylate]	–	–	–	–	–	–	> 10	1 to 10	D (D >10 μM)	> 10	–	–
CCNC(=O)Nc1ccc(-c2nc3c(c(N4CCOC[C@@H]4C)n2)CN(C(=O)C2CC2)C3)cc1 [Example 23, (S)-1-(4-(6-(cyclopropanecarbonyl)-4-(3-methylmorpholino)-6,7-dihydro-5H-pyrrolo[3,4-d]pyrimidin-2-yl)phenyl)-3-ethylurea]	1 to 10	1 to 10	> 10	> 10	1 to 10	> 10	–	–	–	–	–	–
COC(=O)N1Cc2nc(-c3ccc(NC(=O)NC4CC4)cc3F)nc(N3CCOC[C@H]3C)c2C1 [Example 180, (R)-methyl 2-(4-(3-cyclopropylureido)-2-fluorophenyl)-4-(3-methylmorpholino)-5H-pyrrolo[3,4-d]pyrimidine-6(7H)-carboxylate]	–	–	–	–	–	–	> 10	1 to 10	D (D >10 μM)	> 10	–	–
CC(C)N1Cc2nc(-c3ccc(NC(=O)NCCF)cc3F)nc(N3CCOCC3)c2C1 [Example 185, 1-(3-fluoro-4-(6-isopropyl-4-morpholino-6,7-dihyro-5H-pyrrolo[3,4-d]pyrimidin-2-yl)phenyl)-3-(2-fluoroethyl)urea]	–	–	–	–	–	–	1 to 10	> 10	–	> 10	–	1 to 10
CCOC(=O)N1Cc2nc(-c3ccc(NC(=O)NC4CC4)cc3)nc(N3CCOC[C@@H]3C)c2C1 [Example 34, (S)-ethyl 2-(4-(3-cyclopropylureido)phenyl)-4-(3-methylmorpholino)-5H-pyrrolo[3,4-d]pyrimidine-6(7H)-carboxylate]	> 10	> 10	> 10	> 10	–	> 10	–	–	–	–	D (D >10 μM)	–
CCOC(=O)N1Cc2nc(-c3ccc(NC(=O)NC4CC4)cc3F)nc(N3CCOC[C@H]3C)c2C1 [Example 179, (R)-ethyl 2-(4-(3-cyclopropylureido)-2-fluorophenyl)-4-(3-methylmorpholino)-5H-pyrrolo[3,4-d]pyrimidine-6(7H)-carboxylate]	–	–	–	–	–	–	> 10	> 10	D (D >10 μM)	> 10	–	–
CCNC(=O)Nc1ccc(-c2nc3c(c(N4CCOC[C@@H]4C)n2)CN(CC2CC2)C3)cc1 [Example 28, (S)-1-(4-(6-(cyclopropylmethyl)-4-(3-methylmorpholino)-6,7-dihydro-5H-pyrrolo[3,4-d]pyrimidin-2-yl)phenyl)-3-ethylurea]	> 10	> 10	> 10	> 10	–	> 10	–	–	–	–	D (D >10 μM)	–
CCNC(=O)Nc1ccc(-c2nc3c(c(N4CCOC[C@@H]4C)n2)CN(C(=O)OC(C)(C)C)C3)c(F)c1 [Example 153, (S)-tert-butyl 2-(4-(3-ethylureido)-2-fluorophenyl)-4-(3-methylmorpholino)-5H-pyrrolo[3,4-d]pyrimidine-6-(7H)-carboxylate]	–	–	–	–	–	–	> 10	> 10	D (D >10 μM)	> 10	–	–
CCNC(=O)Nc1ccc(-c2nc3c(c(N4CCOC[C@@H]4C)n2)CCNC3)c(F)c1 [Example 164, (S)-1-ethyl-3-(3-fluoro-4-(4-(3-methylmorpholino)-5,6,7,8-tetrahydropyrido[3,4-d]pyrimidin-2-yl)phenyl)urea]	–	–	–	–	–	–	> 10	> 10	D (D >10 μM)	> 10	–	–
CCNC(=O)Nc1ccc(-c2nc3c(c(N4CCOC[C@@H]4C)n2)CCN(C(=O)c2ccc(F)cc2)C3)cc1 [Example 24, (S)-1-ethyl-3-(4-(7-(4-fluorobenzoyl)-4-(3-methylmorpholino)-5,6,7,8-tetrahydropyrido[3,4-d]pyrimidin-2-yl)phenyl)urea]	> 10	> 10	> 10	> 10	–	> 10	–	–	–	–	D (D >10 μM)	–
CC(=O)N1Cc2nc(-c3ccc(NC(=O)NC4CC4)cc3F)nc(N3CCOC[C@@H]3C)c2C1 [Example 155, (S)-1-(4-(6-acetyl-4-(3-methylmorpholino)-6,7-dihydro-5H-pyrrolo[3,4-d]pyrimidin-2-yl)-3-fluorophenyl)-3-cyclopropylurea]	–	–	–	–	–	–	> 10	> 10	D (D >10 μM)	> 10	–	–
C[C@@H]1COCCN1c1nc(-c2ccc(NC(=O)NC3CC3)cc2F)nc2c1CN(C(=O)C1CC1)C2 [Example 188, (R)-1-(4-(6-(cyclopropanecarbonyl)-4-(3-methylmorpholino)-6,7-dihydro-5H-pyrrolo[3,4-d]pyrimidin-2-yl)-3-fluorophenyl)-3-cyclopropylurea]	–	–	–	–	–	–	> 10	> 10	–	> 10	–	1 to 10
CCNC(=O)Nc1ccc(-c2nc3c(c(N4CCOCC4)n2)CN(C(=O)OC)C3)c(F)c1 [Example 162, methyl 2-(4-(3-ethylureido)-2-fluorophenyl)-4-morpholino-5H-pyrrolo[3,4-d]pyrimidine-6(7H)-carboxylate]	–	–	–	–	–	–	1 to 10	> 10	–	1 to 10	–	1 to 10
CCOC(=O)N1Cc2nc(-c3ccc(NC(=O)NCCO)cc3F)nc(N3CCOCC3)c2C1 [Example 171, ethyl 2-(2-fluoro-4-(3-(2-hydroxyethyl)ureido)phenyl)-4-morpholino-5H-pyrrolo[3,4-d]pyrimidine-6(7H)-carboxylate]	–	–	–	–	–	–	> 10	1 to 10	D (D >10 μM)	> 10	–	–

Source: patent US8785457B2 (Cellzome Limited, priority 2009, dated 2014)
